Values joined by “and” are separate entries in the source; they are usually repeats but may differ in a detail not shown here. Equal values may be shown once.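 Step 1: Grow cells in 96-well plates. Step 2: Expose to compound for 48 hours at 5 concentrations. Step 3: Interpolate endpoints linearly; if unreached, use highest concentration. At the GI50, growth is halved. TGI denotes the concentration required for complete inhibition of growth.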
Columns and labels:
Assay in all cases: NCI tumour cell line growth inhibition, 48 h
[1] = system: CCRF-CEM leukemia
[2] = system: BT-549 breast
[3] = system: SK-MEL-2 melanoma
[4] = system: LOX IMVI melanoma
[5] = system: DU-145 prostate
[6] = system: MALME-3M melanoma
[7] = system: SF-539 CNS
[8] = system: SN12C renal

SMILES | GI50 [1] | TGI [1] [µM] | GI50 [2] | TGI [2] | GI50 [3] | TGI [3] | GI50 [4] | TGI [4] | GI50 [5] | TGI [5] | GI50 [6] | TGI [6] | GI50 [7] | TGI [7] | GI50 [8] | TGI [8] [µM]
O=C(NCCNC1=CC(=O)c2nc3ccccc3c3ccnc1c23)c1cnccn1 | 1.94 µM | > 100 | 44.8 µM | > 100 µM | 60.5 µM | > 100 µM | 33.9 µM | > 100 µM | 43.8 µM | > 100 µM | 18.2 µM | > 100 µM | 51.5 µM | > 100 µM | 49.5 µM | > 100
CC(C)(C)c1cnc(CSc2cnc(NC(=O)C3CCNCC3)s2)o1 | 0.251 µM and 0.168 µM | > 100 | 0.304 µM and 0.298 µM | 2.83 µM and 2.45 µM | 0.124 µM and 0.197 µM | 0.284 µM and 0.518 µM | 0.218 µM and 0.131 µM | 14.5 µM and > 10 µM | 0.184 µM and 0.254 µM | 5.53 µM and > 10 µM | 0.229 µM and 0.286 µM | 0.511 µM and 0.907 µM | 0.243 µM and 0.179 µM | 0.67 µM and 0.513 µM | 0.262 µM and 0.215 µM | > 63.3
C#CCN(CCCOc1ccc(Cl)cc1Cl)CCCSC(=O)CCCCCN1/C(=C\C=C2/CCCC(/C=C/C3=[N+](CCCCCC(=O)[O-])c4ccccc4C3(C)C)=C2Cl)C(C)(C)c2ccccc21 | 0.344 µM | 4.38 | 1.05 µM | 2.34 µM | 1.77 µM | 4.2 µM | 1.46 µM | 2.83 µM | 3.02 µM | 10.9 µM | 1.21 µM | 2.85 µM | 1.2 µM | 2.71 µM | 0.587 µM | 2.74
O=C(Cc1csc2nc(-c3ccc(Br)cc3)cn12)N/N=C/c1ccccc1O | 1.81 µM | 8.41 | 10.1 µM | 22.6 µM | 21.1 µM | 53.8 µM | 3.47 µM | 13 µM | 2.89 µM | 13.9 µM | – | – | 3.55 µM | 11.8 µM | 3.34 µM | 16
Cc1nc2sc(C(=O)Nc3cccc(Cl)c3)c(N)c2cc1C(O)c1ccccc1 (stereo not drawn) | 0.483 µM | > 100 | 6.13 µM | 35.6 µM | 2.43 µM | 26.5 µM | 0.687 µM | 22.5 µM | 0.923 µM | 17.2 µM | 0.722 µM | 20.4 µM | 0.546 µM | 7.25 µM | 0.976 µM | 13.6
Nc1nc2c([nH]1)c1[nH]c3ccccc3c1c1[nH]c3ccccc3c21 | 3.33 µM | 12.4 | 12.1 µM | 25.5 µM | 16.2 µM | 32.4 µM | 16 µM | 32.5 µM | 13.5 µM | 26.4 µM | 1.86 µM | 4.45 µM | 12.8 µM | 25.6 µM | 15.3 µM | 29.7
COc1cc(-c2ccc[nH]2)[nH]c1/C=C1\N=C(C)C(C(=O)NC(C)C)=C1C | 1.77 µM | 32 | 4.62 µM | 18.9 µM | 2.45 µM | 5.49 µM | 0.74 µM | 2.52 µM | 4.7 µM | 18.2 µM | 4.6 µM | 16.9 µM | 5.47 µM | 20.2 µM | 10.7 µM | 24
Fc1cccc(C2ON=C(c3ccccc3)N2C23CC4CC(CC(C4)C2)C3)c1 (stereo not drawn) | – | – | – | > 10 µM | – | > 10 µM | – | > 10 µM | – | > 10 µM | – | > 10 µM | – | > 10 µM | – | > 10
COc1cc(COC(=O)N(C)[C@@H](Cc2ccccc2)C(=O)O)c([N+](=O)[O-])cc1OC | – | > 100 | – | > 100 µM | – | – | – | – | – | > 100 µM | – | > 100 µM | – | > 100 µM | – | > 100
CC1(C)N=C(N)N=C(N)N1c1ccc(CCCCCCc2ccc(S(=O)(=O)F)cc2)cc1 | – | – | – | – | – | 30.2 µM | – | > 20.9 µM | – | 21.1 µM | – | 3.79 µM | – | – | – | 7.02
COc1ccc2c(c1)CCC1C2CCC2(C)C(NC(=O)CCCCC3CCSS3)CCC12 (stereo not drawn) | 6.26 µM | > 100 | > 100 µM | > 100 µM | 53.5 µM | > 100 µM | 32.5 µM | > 100 µM | > 100 µM | > 100 µM | 92.2 µM | > 100 µM | > 100 µM | > 100 µM | 16.4 µM | > 100
CCCCCCC1CCCCN1C(c1ccccc1)C(O)c1ccccc1 (stereo not drawn) | – | – | 10.4 µM | 22.4 µM | 5.33 µM | 20.5 µM | 3.04 µM | 12.4 µM | 8.34 µM | 20.7 µM | 5.37 µM | 19.7 µM | 11.6 µM | 24.3 µM | 6.5 µM | 20.3
